Results on 28 compounds are retold here after PubChem BioAssay (NCI).

Holding throughout (experiment): DTP human tumour cell line panel, 48 h
In assay [1] the test system is SN12C renal.
Assay [2] has as its system BT-549 breast.
The test system of assay [3] is NCI-H23 lung.
In assay [4] the test system is SK-MEL-28 melanoma.
Assay [5] relates to SR leukemia.
Assay [6] deals with HS 578T breast.
Assay [7] has as its system NCI-H460 lung.
The test system of assay [8] is HL-60(TB) leukemia.
The test system of assay [9] is CAKI-1 renal.
Assay [10] concerns UACC-257 melanoma.
In assay [11] the test system is M19-MEL melanoma.
The subject of assay [12] is DMS 273 small cell lung.

Each structure is given as a SMILES string.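 Protocol summary: plate cells (96-well), add compound at 5 concentrations, incubate 48 h, interpolate endpoints linearly. TGI marks complete inhibition of growth.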

In general, TGI refers to the concentration at which net growth stops. A low value points to more potent growth arrest. For `CC1(C)CCC[C@@]2(C)C1CC[C@@]1(CO1)[C@@H]2/C=C\C(C=O)CC=O` (stereo not given in full), the TGI in assay [1] was above 100 µM; in assay [2], above 100 µM; in [3], above 100 µM; in [4] it was above 100 µM; in assay [5], 99.2 µM; in assay [6] it was above 100 µM. The TGI is above 100 µM in assay [7], above 74.4 µM in assay [8], above 100 µM in assay [9] and above 100 µM in [10].
In the case of `COC(=O)C1=COC2OC3CC1C2C(C)O3` (stereo not given), the concentration for total growth inhibition (TGI) in assay [1], in assay [2], in assay [3], in assay [4], in [5] and in assay [6] was above 100 µM in each case. The TGI in assay [7], in assay [8], in [9] and in [10] was above 100 µM in each case.
Take `CC12CCC(=O)[C@@]1(C)CCCC2O` (stereo not given in full): the TGI in [1], in assay [2], in [3], in [4], in assay [5] and in assay [6] was above 100 µM each time. Also, the TGI in assay [7], in assay [8], in assay [9] and in assay [10] was above 100 µM each time.
For the compound `O=Cc1ccc(-c2ccc(S(=O)(=O)O)cc2)o1`, the TGI in assay [1], in assay [2], in assay [3], in [4], in assay [5] and in [6] was above 100 µM each time. The total growth inhibition concentration (TGI) in assay [7], in assay [8], in assay [9] and in assay [10] was above 100 µM each time.
On to `COc1cc2c(cc1OC)[C@H]1C(COC(=O)Nc3ccccc3)CN1CC2` (stereo not given in full), for which the TGI in assay [1], in [3], in assay [4], in assay [5], in assay [11] and in assay [7] was above 100 µM each time. Also, the concentration for total growth inhibition (TGI) in assay [8], in assay [9] and in assay [12] was above 100 µM in each case.
For the compound `CCOC(=O)CCc1ccc(NC(=O)/C=C/c2ccc([N+](=O)[O-])o2)cc1`, the concentration for total growth inhibition (TGI) in assay [1] is 4.26 µM; in assay [2] it was 4.79 µM; in assay [3], 3.33 µM; in [4], 3.39 µM; in [5] it was 0.475 µM; in assay [6], above 100 µM. Moreover, the TGI in [7] came to 4.78 µM; in assay [8], 0.481 µM; in [9], 6.54 µM; in assay [10], 2.71 µM.
Consider `CC(=O)N1N=C(c2ccc3ccccc3c2O)CC1c1ccc(N(C)C)cc1` (stereo not given), for which the total growth inhibition concentration (TGI) in assay [1], in [2], in assay [3], in [4], in [5] and in assay [6] was above 100 µM in each case. Further, the TGI in [7], in [9] and in assay [10] was above 100 µM each time.
Take `Cc1ccc(CN2CCN(Cc3ccc(C)o3)C(C)C2)o1` (stereo not given): the TGI in assay [1], in assay [2], in [3], in assay [4], in [5] and in assay [6] was above 100 µM each time. The TGI in assay [7], in assay [8], in [9] and in assay [10] was above 100 µM in each case.
`Cc1ccc(S(=O)(=O)NNC(=O)Nc2ccc([N+](=O)[O-])cc2)cc1`: the TGI in assay [1], in assay [2], in [3], in assay [4], in [5] and in assay [6] was above 100 µM each time. The TGI in assay [7] is 87.6 µM; in assay [8], above 100 µM; in assay [9] it was above 100 µM; in [10], above 100 µM.
As to `CCOC(=O)c1csc(-c2cn(C)c3c2C(=O)C(OC)=CC3=O)n1`, the TGI was above 100 µM in assay [1]; above 100 µM in assay [2]; above 56.7 µM in [3]; above 100 µM in assay [4]; above 100 µM in assay [5]; above 58.8 µM in assay [6]. Further, the TGI is above 41.6 µM in [7], above 100 µM in [8], above 100 µM in [9] and above 78.9 µM in assay [10].
On to `COC(=O)/C(C#N)=C/c1cc(C(C)(C)C)c(O)c(C(C)(C)C)c1`, for which the TGI in assay [1] was 8.17 µM; in assay [2] it was 14 µM; in assay [3], 12.5 µM; in assay [4], 15.4 µM; in [5], 11 µM; in assay [6], above 37 µM. For the same compound, the TGI in assay [7] was 5.75 µM; in assay [8] it was 4.47 µM; in assay [9] it was above 27.4 µM; in [10] it was 6.72 µM.
Consider `Cc1nn(C(=O)c2ccc(Cl)cc2)c2c1C(c1ccc(Cl)cc1)SC(N)=N2` (stereo not given), for which the concentration for total growth inhibition (TGI) in [1], in assay [2], in assay [3], in assay [4], in assay [5] and in assay [6] was above 10 µM each time. For the same compound, the TGI in [7], in assay [8], in assay [9] and in assay [10] was above 10 µM each time.
On to `COc1cc(OC)nc(-n2c(N)c(C(=O)O)c3ccc([N+](=O)[O-])cc3c2=O)n1`, for which the TGI in assay [1], in assay [2], in assay [3], in [4], in assay [5] and in assay [6] was above 100 µM each time. Moreover, the TGI in [7], in assay [8] and in assay [9] was above 100 µM in each case.
As for `COC1(OC)C2C=CC1C([C@](C)(N)CO)C2` (stereo not given in full), the TGI in [1], in assay [2], in [3], in [4], in assay [5] and in assay [6] was above 100 µM each time. Besides, the TGI in assay [7], in assay [8], in [9] and in assay [10] was above 100 µM each time.
In the case of `COC(=O)c1cc2c(cc1C(=O)OC)[C@@]1(C)CCCC(C)(C)C1CC2` (stereo not given in full), the TGI in [1] is 35.2 µM; in [2], 85.9 µM; in [3], above 100 µM; in [4], above 100 µM; in assay [5], 57.7 µM; in assay [6] it was 44.9 µM. The TGI in assay [7] was determined as 43.8 µM; in assay [8] it was 31.9 µM; in assay [10], 62.8 µM.
As to `Cc1cnc2[nH]c(-c3ccc(Cl)cc3)cc(=O)c2c1`, the TGI in [1], in assay [2], in assay [3], in assay [4], in assay [5] and in assay [6] was above 100 µM each time. Besides, the TGI in assay [7] was above 100 µM; in assay [8], above 23.3 µM; in assay [9], above 55.6 µM; in assay [10], above 100 µM.
On to `CC(=O)OC(C)c1cc2c(s1)C(=O)c1ccsc1C2=O` (stereo not given), for which the TGI in assay [1] was determined as 0.355 µM; in assay [2] it was 0.347 µM; in assay [3], 0.196 µM; in assay [5], 0.365 µM; in assay [6] it was 0.422 µM; in assay [8] it was 0.0364 µM. Also, the total growth inhibition concentration (TGI) in [9] was 2.39 µM; in assay [10] it was 0.156 µM.
On to `COC(=O)[C@H](C)N(C)C(=O)[C@H](C)N1[C@@H](c2ccccc2)COC1(C)C`, for which the TGI in assay [2], in [3], in assay [4], in assay [5], in [6] and in assay [7] was above 100 µM each time. Moreover, the TGI in assay [8], in assay [9] and in assay [10] was above 100 µM each time.
Turning to `C=CCN1C(=O)CS/C1=N\NC(=O)CSc1nc2ccccc2c(=O)n1CC`, the TGI in [1], in assay [2], in [3], in assay [4], in [5] and in [6] was above 100 µM in each case. The TGI in assay [7] is 44.4 µM; in assay [8] it was above 100 µM; in assay [9] it was above 100 µM; in assay [10] it was above 100 µM.
Turning to `Oc1cccc2ccc(Br)nc12`, the TGI in assay [1], in assay [2], in [3], in assay [4], in assay [5] and in assay [6] was above 100 µM throughout. For the same compound, the TGI in assay [7], in assay [8], in assay [9] and in assay [10] was above 100 µM throughout.
As to `NC(=O)NC(=O)c1cccc(NC(=O)CCl)c1`, the TGI in assay [1] is 4.8 µM; in [2], 9.03 µM; in assay [3], 8.14 µM; in assay [4] it was above 62.2 µM; in assay [5], 3.92 µM; in assay [6], above 21.7 µM. Further, the TGI in assay [7] is 3.92 µM; in assay [8], 1.97 µM; in assay [9], 6 µM; in assay [10], 13.6 µM.
With `COC1C(=O)N(SC)C1c1ccccc1Cl` (stereo not given), the TGI in [1] was 47.3 µM; in assay [2] it was 54.2 µM; in assay [3] it was above 100 µM; in [4], above 100 µM; in [5] it was 42.4 µM; in assay [6], above 100 µM. For the same compound, the total growth inhibition concentration (TGI) is above 100 µM in [7], 42.2 µM in [8], above 100 µM in assay [9] and above 100 µM in [10].
Consider `CCOc1nc2sc3c(c2c(=O)n1CCSSCCn1c(OCC)nc2sc4c(c2c1=O)CCCC4)CCCC3`, for which the TGI in [1], in assay [2], in assay [3], in assay [4], in assay [5] and in [6] was above 100 µM each time. For the same compound, the TGI in assay [7], in assay [9] and in assay [10] was above 100 µM throughout.
With `CCOC(=O)c1nc2cc(F)cc(F)c2[nH]c1=O`, the TGI in assay [1], in assay [2], in [3], in assay [4], in [5] and in assay [6] was above 100 µM in each case. Moreover, the TGI in assay [7], in assay [8], in [9] and in assay [10] was above 100 µM in each case.
Consider `C1=Cc2cccc3occ(c23)C=C1`, for which the total growth inhibition concentration (TGI) in [1] is above 100 µM; in assay [2] it was above 100 µM; in assay [3], above 100 µM; in assay [4], above 100 µM; in [5] it was 43 µM; in assay [6], above 100 µM. Also, the TGI is above 100 µM in assay [7], 48.2 µM in assay [8], above 100 µM in assay [9] and above 100 µM in assay [10].
As to `c1ccc(COC[C@H]2C3OCC([C@H](OCc4ccccc4)[C@H]3OCc3ccccc3)N2Cc2ccccc2)cc1` (stereo not given in full), the TGI in assay [1], in [2], in assay [3], in assay [4], in assay [5] and in [6] was above 100 µM in each case. In addition, the TGI in assay [7] is above 100 µM; in [8] it was above 53.4 µM; in [9], above 100 µM; in [10] it was above 100 µM.
`N#Cc1c(N)c2c(c(-c3ccccc3)c1-c1ccccc1)C(=O)N(O)C2=O`: the TGI in assay [1] was above 100 µM; in assay [2], above 100 µM; in assay [4], above 100 µM; in assay [5], above 100 µM; in assay [6], 99.6 µM; in assay [7], above 100 µM. Moreover, the TGI in assay [8], in [9] and in [10] was above 100 µM each time.
For `O=C1NC(N2CCCCC2)=N/C1=C\c1ccco1`, the total growth inhibition concentration (TGI) in assay [1], in assay [2], in assay [3], in assay [4], in assay [5] and in assay [6] was above 100 µM throughout. Besides, the TGI in [8], in assay [9] and in assay [10] was above 100 µM throughout.
